Like-named read-outs stand apart in the source and are kept apart here.
Legend:
Intestine of rats = conditions: cited from earlier work
patients with AKI [1] = conditions: human, in vivo
ICU patients with AKI = conditions: cited from earlier work
all ICU patients = conditions: cited from earlier work
[2] = system: patients without AKI on admission or prior to receiving drug; test: Anti-emetic usage and AKI risk in first ICU encounter: usage, max KDIGO category, binary logistic regression (Example 3); format: in vivo, human; conditions: for MAX KDIGO AKI Category 0 (%) / MAX KDIGO AKI Category 0, number of patients / MAX KDIGO AKI Category 1 (%) / MAX KDIGO AKI Category 1, number of patients / MAX KDIGO AKI Category 2 (%) / MAX KDIGO AKI Category 2, number of patients / MAX KDIGO AKI Category 3 (%) / MAX KDIGO AKI Category 3, number of patients: drug users, use before discharge/death or before AKI
Text: Study Population: The study population excludes patients with end-stage kidney disease and excludes patients with Acute Kidney Injury on admission or prior to receiving drug. […] Metoclopramide is primarily a dopamine D2 receptor antagonist anti-emetic. […] Prochlorperazine is primarily a dopamine receptor antagonist anti-emetic. […] This was a binary logistic regression with an outcome of experiencing any AKI within a first ICU encounter. The independent variable was use of anti-emetic prior to AKI (or before discharge if no AKI). […] The independent variable was use of anti-emetic prior to AKI (or before discharge if no AKI). […] The outcome was experiencing any AKI. The […] was the use of medication within the average time prior to AKI.

patients with AKI [3] = system: patients with AKI; set-up: species or system human; conditions: in vivo
patients with AKI [4] = conditions: human, in vivo; remark: listed apart in the source
[5] = system: Fridericia-corrected QTc interval; conditions: 32 mg, 15 minute infusion, cited from earlier work
patients with AKI [6] = test: Validation in eICU database: propensity score matching, chi-square test of ICU mortality (Example 4); format: in vivo, human
ICU patients = test: Anti-emetic use and in-ICU death, logistic regression (Example 3); format: in vivo, human; conditions: outcome in-ICU death
[7] = 84 mg-kg in water by oral gavage 0.25d vs vehicle
[8] = gene negatively correlated with eGFR in human AKI cohort
[9] = rat intestine, 84 mg-kg oral gavage, 0.25d vs vehicle
[10] = literature and/or clinical trials
[11] = outcome any AKI within first ICU encounter, use of anti-emetic prior to AKI (or before discharge if no AKI)
[12] = outcome any AKI, use of medication within the average time prior to AKI
[13] = after matching, 3423 patients in group
[14] = use of medication within average time prior to AKI
[15] = outcome AKI Category 2 or 3 vs Category 0 or 1, use of anti-emetic prior to AKI (or before discharge)
[16] = use within average time prior to AKI and Apache Score on ICU admission

Compound: Cc1nccn1CC1CCc2c(c3ccccc3n2C)C1=O (centres unmarked) [Ondansetron]
- Genes (differentially expressed genes in bioset) (Intestine of rats; [7]): 1,815
- down-regulated genes (Intestine of rats; [7]): 722
- up-regulated genes (Intestine of rats; [7]): 1,093
- Gene expression fold change by Ondansetron treatment: AMACR (Intestine of rats; [8]): −2.38
- Gene expression fold change by Ondansetron treatment: CASP1 (Intestine of rats; [8]): −8.03
- Gene expression fold change by Ondansetron treatment: CPD (Intestine of rats; [8]): −2.4
- Gene expression fold change by Ondansetron treatment: GBP2 (Intestine of rats; [8]): −4.71
- Gene expression fold change by Ondansetron treatment: KPNA2 (Intestine of rats; [8]): 1.68
- Gene expression fold change by Ondansetron treatment: MCL1 (Intestine of rats; [8]): −3.07
- Gene expression fold change by Ondansetron treatment: MET (Intestine of rats; [8]): −2.32
- Gene expression fold change by Ondansetron treatment: TFPI (Intestine of rats; [8]): 4.25
- gene expression fold change: Axin2 (Intestine of rats; [9]): 2.12
- gene expression fold change: Birc2 (Intestine of rats; [9]): −2.85
- gene expression fold change: Casp3 (Intestine of rats; [9]): −4.18
- gene expression fold change: Cdc42 (Intestine of rats; [9]): −1.7
- gene expression fold change: Cdkn2b (Intestine of rats; [9]): −3.79
- gene expression fold change: Crk (Intestine of rats; [9]): −2.78
- gene expression fold change: Ctbp2 (Intestine of rats; [9]): −10.3
- gene expression fold change: Ctnna1 (Intestine of rats; [9]): −2.95
- gene expression fold change: Ctnnb1 (Intestine of rats; [9]): −6.88
- gene expression fold change: Cycs (Intestine of rats; [9]): −2.08
- gene expression fold change: Erbb2 (Intestine of rats; [9]): −2.24
- gene expression fold change: Fn1 (Intestine of rats; [9]): −10.3
- gene expression fold change: Gsk3b (Intestine of rats; [9]): 2.3
- gene expression fold change: Hdac1 (Intestine of rats; [9]): 1.52
- gene expression fold change: Itgb1 (Intestine of rats; [9]): −3.18
- gene expression fold change: Jak1 (Intestine of rats; [9]): −10.7
- gene expression fold change: Kras (Intestine of rats; [9]): −2.58
- gene expression fold change: Lamb2 (Intestine of rats; [9]): −4.03
- gene expression fold change: Mapk1 (Intestine of rats; [9]): −4.09
- gene expression fold change: Mapk3 (Intestine of rats; [9]): −1.98
- gene expression fold change: Mapk9 (Intestine of rats; [9]): −5.48
- gene expression fold change: Mecom (Intestine of rats; [9]): 1.46
- gene expression fold change: Met (Intestine of rats; [9]): −2.32
- gene expression fold change: Msh2 (Intestine of rats; [9]): −2.29
- gene expression fold change: Mtor (Intestine of rats; [9]): −1.75
- gene expression fold change: Pdgfrb (Intestine of rats; [9]): 1.49
- gene expression fold change: Pik3r1 (Intestine of rats; [9]): −3.77
- gene expression fold change: Plcg2 (Intestine of rats; [9]): −1.63
- gene expression fold change: Pld1 (Intestine of rats; [9]): −5.95
- gene expression fold change: Prkcb (Intestine of rats; [9]): −3.73
- gene expression fold change: Pten (Intestine of rats; [9]): −4.92
- gene expression fold change: Raf1 (Intestine of rats; [9]): 1.51
- gene expression fold change: Rb1 (Intestine of rats; [9]): −9.02
- gene expression fold change: Smo (Intestine of rats; [9]): −2.45
- gene expression fold change: Sos2 (Intestine of rats; [9]): 2.47
- gene expression fold change: Tgfa (Intestine of rats; [9]): −3.86
- gene expression fold change: Tgfb1 (Intestine of rats; [9]): −1.54
- gene expression fold change: Tgfb3 (Intestine of rats; [9]): 1.83
- gene expression fold change: Tpr (Intestine of rats; [9]): −1.93
- Death rate in MIMIC III database (patients with AKI [1]): 140.91 per 1,000 patients
- average death rate (patients with AKI [1]): 14.1%
- Reported for protecting effect in ICU patients with AKI (ICU patients with AKI; [10]): N
- Reported for protecting effect in all ICU patients (all ICU patients; [10]): N
- MAX KDIGO AKI Category 0 (%) [2]: 73.54%
- MAX KDIGO AKI Category 0, number of patients [2]: 32,447
- MAX KDIGO AKI Category 1 (%) [2]: 13.92%
- MAX KDIGO AKI Category 1, number of patients [2]: 6,143
- MAX KDIGO AKI Category 2 (%) [2]: 6.68%
- MAX KDIGO AKI Category 2, number of patients [2]: 2,946
- MAX KDIGO AKI Category 3 (%) [2]: 5.87%
- MAX KDIGO AKI Category 3, number of patients [2]: 2,588
- Odds Ratio [2, 11]: 0.403
- Odds Ratio [2, 12]: 0.906
- Odds Ratio ([2]; outcome any AKI, use of medication within the average time prior to AKI, listed as ondansetron): protective
- Coefficient (patients with AKI [3]): −0.035
- Death rate in eICU database (patients with AKI [4]): 124.87 per 1,000 patients
- maximum mean (upper limit of 90% CI) difference in QTcF from placebo after baseline-correction ([5]; at 20 minutes): 19.6 (21.5) msec
- period in which prolongation of QTcF was observed after start of infusion [5]: 15 to 240 min
- Alive (patients) (patients with AKI [6]; [13]): 2993
- Death (patients) (patients with AKI [6]; [13]): 430
- ICU mortality (patients with AKI [6]; after propensity score matching, 3,423 patients per group): 12.56%
- Number Need to Treat (NNT) (patients with AKI [6]; eICU patients, 95% confidence interval 23.61, 103.72): 38.46
- Odds Ratio (ICU patients; [14]): 0.460

Compound: CN1CCN(CCCN2c3ccccc3Sc3ccc(Cl)cc32)CC1 [Prochlorperazine]
- MAX KDIGO AKI Category 0 (%) [2]: (73.48) %
- MAX KDIGO AKI Category 0, number of patients [2]: 2,488
- MAX KDIGO AKI Category 1 (%) [2]: (14.77) %
- MAX KDIGO AKI Category 1, number of patients [2]: 500
- MAX KDIGO AKI Category 2 (%) [2]: (5.88) %
- MAX KDIGO AKI Category 2, number of patients [2]: 199
- MAX KDIGO AKI Category 3 (%) [2]: (5.88) %
- MAX KDIGO AKI Category 3, number of patients [2]: 199
- Odds Ratio [2, 15]: 0.90
- Odds Ratio [2, 11]: 0.457
- Odds Ratio [2, 12]: 0.988
- Odds Ratio (ICU patients; [14]): 0.736
- Odds Ratio (ICU patients; [16]): 0.879

Compound: Cc1ncc2n1-c1ccc(Cl)cc1C(c1ccccc1F)=NC2 [Midazolam]
- Death rate in MIMIC III database (patients with AKI [1]): 899.95 per 1,000 patients
- Reported for protecting effect in ICU patients with AKI (ICU patients with AKI): N
- Reported for protecting effect in all ICU patients (all ICU patients): Y^20
- Coefficient (patients with AKI [3]): 0.027
- Death rate in eICU database (patients with AKI [4]): 273.07 per 1,000 patients

Compound: CCCCC(CC)COC(=O)CC(C(=O)OCC(CC)CCCC)S(=O)(=O)O (centres unmarked) [Docusate]
- Death rate in MIMIC III database (patients with AKI [1]): 178.57 per 1,000 patients
- Reported for protecting effect in ICU patients with AKI (ICU patients with AKI; [10]): N
- Reported for protecting effect in all ICU patients (all ICU patients; [10]): N
- Coefficient (patients with AKI [3]): −0.028
- Death rate in eICU database (patients with AKI [4]): 136.48 per 1,000 patients

Compound: CCN(CC)CCNC(=O)c1cc(Cl)c(N)cc1OC [Metoclopramide]
- Death rate in MIMIC III database (patients with AKI [1]): 248.67 per 1,000 patients
- Reported for protecting effect in ICU patients with AKI (ICU patients with AKI; [10]): N
- Reported for protecting effect in all ICU patients (all ICU patients; [10]): N
- MAX KDIGO AKI Category 0 (%) [2]: (72.54) %
- MAX KDIGO AKI Category 0, number of patients [2]: 3,830
- MAX KDIGO AKI Category 1 (%) [2]: (14.05) %
- MAX KDIGO AKI Category 1, number of patients [2]: 742
- MAX KDIGO AKI Category 2 (%) [2]: (6.91) %
- MAX KDIGO AKI Category 2, number of patients [2]: 365
- MAX KDIGO AKI Category 3 (%) [2]: (6.50) %
- MAX KDIGO AKI Category 3, number of patients [2]: 343
- Odds Ratio [2, 15]: 1.033
- Odds Ratio [2, 11]: 0.408
- Odds Ratio [2, 12]: 1.249
- Death rate in eICU database (patients with AKI [4]): 158.32 per 1,000 patients
- Odds Ratio (ICU patients; [14]): 1.270
- Odds Ratio (ICU patients; [16]): 1.08

Compound: Heparin
- Death rate in MIMIC III database (patients with AKI [1]): 210.41 per 1,000 patients
- Reported for protecting effect in ICU patients with AKI (ICU patients with AKI; [10]): N
- Reported for protecting effect in all ICU patients (all ICU patients; [10]): Y^10
- Coefficient (patients with AKI [3]): −0.053
- Death rate in eICU database (patients with AKI [4]): 143.03 per 1,000 patients

Compound: NS(=O)(=O)c1cc(C(=O)O)c(NCc2ccco2)cc1Cl [Furosemide]
- Death rate in MIMIC III database (patients with AKI [1]): 214.64 per 1,000 patients
- Reported for protecting effect in ICU patients with AKI (ICU patients with AKI; [10]): Y^8
- Reported for protecting effect in all ICU patients (all ICU patients; [10]): Y^7
- Coefficient (patients with AKI [3]): −0.036
- Death rate in eICU database (patients with AKI [4]): 120.87 per 1,000 patients

Compound: CCCCc1oc2ccccc2c1C(=O)c1cc(I)c(OCCN(CC)CC)c(I)c1 [Amiodarone]
- Death rate in MIMIC III database (patients with AKI [1]): 338.95 per 1,000 patients
- Reported for protecting effect in ICU patients with AKI (ICU patients with AKI; [10]): N
- Reported for protecting effect in all ICU patients (all ICU patients; [10]): N
- Coefficient (patients with AKI [3]): 0.090
- Death rate in eICU database (patients with AKI [4]): 269.89 per 1,000 patients

Compound: COCCc1ccc(OCC(O)CNC(C)C)cc1 (centres unmarked) [Metoprolol]
- Death rate in MIMIC III database (patients with AKI [1]): 169.99 per 1,000 patients
- Reported for protecting effect in ICU patients with AKI (ICU patients with AKI; [10]): N
- Reported for protecting effect in all ICU patients (all ICU patients; [10]): Y^11
- Coefficient (patients with AKI [3]): −0.051
- Death rate in eICU database (patients with AKI [4]): 107.87 per 1,000 patients

From patent US20240009173A1, “Use of 5-HT3-Targeting Drugs for Treatment of Acute Kidney Injury” (priority 2020, published 2024)
